Assay results: article PMC12584752, “Covalent fragment screening to inhibit the E3 ligase activity of bacterial NEL enzymes SspH1 and SspH2” (RSC Chemical Biology, 2025)

Target: T1, SspH1 (aa 161–700) (Salmonella typhimurium, UniProt D0ZVG2)
T1 construct: Recombinant IpaH9.8 (21–545) and SspH1 (161–700) were incubated at 0.5 μM; His-tag (N, cleaved yes); made in house; host or cells: E. coli BL21
Assay: Full kinetics characterisation of covalent labelling by intact LC-MS
Assay type: binding
Details: for ligand efficiencies reflecting the reversible binding interactions: SspH1 and 2, from lower bounds on KI
Method: Fig. 3 Validation of HTC hit compounds by intact MS. Labelling heatmaps of dilution series (100–6.25 μM) of compounds 4–10 with (A) WT SspH1 and (B) C492K SspH1. Labelling heatmaps of dilution series of (C) compound 6 and (D) compound 7 with bacterial and human ubiquitin binding proteins. Recombinant proteins were incubated at either 1.0 or 0.5 μM with 50 μM fragments for 24 hours at 4 °C, before fragment labelling was analysed by intact LC-MS. Bacterial proteins are shown in bold and human proteins in italic fonts. (E)–(H) Kinetics analyses: time courses (0–12 hours) of compound labelling (100–1.56 μM) of SspH1 and SspH2 (0.5 μM) for (E) SspH1 and compound 7, and (F) SspH2 and compound 6. Measurements were performed in technical triplicates. Labelling percentages were plotted against time in GraphPad Prism v.10, and curves fitted separately for each replicate using one-phase association, with constraints Y0 = 0 and plateau = highest labelling percentage. Graphs for SspH1 and compound 6, and SspH2 and compound 7 are shown in Fig. S4A and B. Rate constants (kobs, as given by Graphpad Prism calculated K values) were plotted against fragment concentration in triplicate for (G) SspH1 and (H) SspH2. Straight lines were fitted with constraint Yintercept = 0. For SspH2 kinetics, 100 μM kobs was outside the linear range.
To further understand and compare the labelling of SspH1 and SspH2, we performed a full kinetic analysis of compounds 6 and 7 with both proteins (Fig. 3E–H and Fig. S4A, B). […] Up to a maximum test concentration of 100 μM, the kobsvs. concentration plot was linear for SspH1 so it was not possible to derive individual values of kinact and KI. For SspH2, the relationship was also linear up to 50 μM so it was still only possible to reliably calculate kinact/KI. Nonetheless, we can infer from these plots KI values (SspH1) >100 μM and KI values […] for compounds 6 and 7. From these lower bounds on KI it is clear that the range of ligand efficiencies reflecting the reversible binding interactions with SspH1 and 2 are low (0.19–0.21) and may hint at a challenging binding site for optimising a small molecule inhibitor. Identification of alternative hit series and/or X-ray crystallography would be expected to yield further insight into this putative small molecule binding site. […] At present we don’t understand the molecular basis for the increased reactivity of SspH2 over SspH1, and can only speculate that subtle differences in the active site environment render the catalytic cysteine more reactive.
Recombinant SspH1 (aa 161–700) and SspH2 (aa 166–783) were both characterised against compounds 6 and 7. A dilution series in DMSO was prepared for the compound, and 1 μL added to three separate wells in a 384 well plate, representing technical triplicates of each condition. 99 μL of 0.5 μM SspH1 or SspH2 in 25 mM HEPES pH 7.5, 50 mM NaCl buffer was added to the wells and mixed thoroughly (final compound concentrations 100, 50, 25, 12.5, 6.25, 3.125, 1.56 μM). This mixture was then dispensed into 8 wells of 10 μL each in a new 384 well plate, one for each time point. The plate was incubated at 4 °C during intact MS. Intact protein LC-MS was performed as previously described,[40] at approximate time points 0, 1, 2, 4, 6, 8 and 12 hours, and deconvoluted as above. The exact times of each measurement were saved with each reading and used for kinetics calculations. Labelling percentages were plotted against time in GraphPad Prism v.10, and curves fitted separately for each replicate using one-phase association, with constraints Y0 = 0 and plateau = highest labelling percentage. Rate constants (kobs, as given by Graphpad Prism calculated K values) were then plotted against concentration in triplicate, and straight lines fitted with constraint Yintercept = 0. Data are presented as mean ± SD, n = 3. Slope values were converted from μM^−1 hour^−1 to M^−1 s^−1 to give kinact/KI values. […]

T1 sequence (D0ZVG2 161-700): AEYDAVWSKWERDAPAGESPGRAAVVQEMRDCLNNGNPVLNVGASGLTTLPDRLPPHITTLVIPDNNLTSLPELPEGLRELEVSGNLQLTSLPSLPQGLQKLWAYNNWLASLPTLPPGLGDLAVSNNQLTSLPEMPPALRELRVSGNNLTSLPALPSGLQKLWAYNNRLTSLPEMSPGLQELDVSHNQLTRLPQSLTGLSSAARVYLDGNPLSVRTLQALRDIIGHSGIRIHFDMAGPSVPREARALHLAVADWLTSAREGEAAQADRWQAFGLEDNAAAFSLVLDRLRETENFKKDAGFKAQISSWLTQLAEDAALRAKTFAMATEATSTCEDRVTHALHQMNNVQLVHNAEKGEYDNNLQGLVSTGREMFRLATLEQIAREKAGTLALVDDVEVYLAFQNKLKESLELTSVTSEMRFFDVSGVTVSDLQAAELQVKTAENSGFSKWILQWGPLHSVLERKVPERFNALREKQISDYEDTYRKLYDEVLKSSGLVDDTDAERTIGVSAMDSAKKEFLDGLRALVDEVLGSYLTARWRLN

| SMILES | Ki | kinact/KI | ligand efficiencies reflecting the reversible binding interactions |
| --- | --- | --- | --- |
| Cc1cc(-c2nc3ccccc3n2C2CCN(C(=O)CCl)CC2)cc(C)c1O.Cl [compound 6] | > 100 µM | 1.2 M⁻¹ s⁻¹ | 0.19–0.21 |
| Cl.O=C(CCl)N1CCC(n2c(-c3ccc(C(F)(F)F)cc3)nc3ccccc32)CC1 [compound 7] | > 100 µM | 1.4 M⁻¹ s⁻¹ | 0.19–0.21 |
